Each block holds one molecule with its values, some of them ahead of it.
Key:
[1] = system: PANC-1; assay: Antitumor activity against human PANC-1 cells xenografted in male BALB/c/Nu/Nu assessed as reduction in tumor growth inhibition at 4 mg/kg, ip and measured every 2 days for 21 days; conditions: Mus musculus, PANC-1, 48 h, read-out: TGI
[2] = system: PANC-1; assay: cells; conditions: Homo sapiens, PANC-1, 96 h
Description: Antiproliferative activity against human PANC-1 cells assessed as inhibition of cell growth incubated for 96 hrs by CCK-8 cell viability assay

[3] = system: MDA-MB-231; assay: cells; conditions: Homo sapiens, MDA-MB-231, 96 h
Description: Antiproliferative activity against human MDA-MB-231 cells assessed as inhibition of cell growth incubated for 96 hrs by CCK-8 cell viability assay

[4] = molecular target: T1, Histone-lysine N-methyltransferase EHMT2 (Homo sapiens, UniProt Q96KQ7); assay: Inhibition of G9a (unknown origin) by AlphaLISA assay
T1 sequence (Q96KQ7 whole entry): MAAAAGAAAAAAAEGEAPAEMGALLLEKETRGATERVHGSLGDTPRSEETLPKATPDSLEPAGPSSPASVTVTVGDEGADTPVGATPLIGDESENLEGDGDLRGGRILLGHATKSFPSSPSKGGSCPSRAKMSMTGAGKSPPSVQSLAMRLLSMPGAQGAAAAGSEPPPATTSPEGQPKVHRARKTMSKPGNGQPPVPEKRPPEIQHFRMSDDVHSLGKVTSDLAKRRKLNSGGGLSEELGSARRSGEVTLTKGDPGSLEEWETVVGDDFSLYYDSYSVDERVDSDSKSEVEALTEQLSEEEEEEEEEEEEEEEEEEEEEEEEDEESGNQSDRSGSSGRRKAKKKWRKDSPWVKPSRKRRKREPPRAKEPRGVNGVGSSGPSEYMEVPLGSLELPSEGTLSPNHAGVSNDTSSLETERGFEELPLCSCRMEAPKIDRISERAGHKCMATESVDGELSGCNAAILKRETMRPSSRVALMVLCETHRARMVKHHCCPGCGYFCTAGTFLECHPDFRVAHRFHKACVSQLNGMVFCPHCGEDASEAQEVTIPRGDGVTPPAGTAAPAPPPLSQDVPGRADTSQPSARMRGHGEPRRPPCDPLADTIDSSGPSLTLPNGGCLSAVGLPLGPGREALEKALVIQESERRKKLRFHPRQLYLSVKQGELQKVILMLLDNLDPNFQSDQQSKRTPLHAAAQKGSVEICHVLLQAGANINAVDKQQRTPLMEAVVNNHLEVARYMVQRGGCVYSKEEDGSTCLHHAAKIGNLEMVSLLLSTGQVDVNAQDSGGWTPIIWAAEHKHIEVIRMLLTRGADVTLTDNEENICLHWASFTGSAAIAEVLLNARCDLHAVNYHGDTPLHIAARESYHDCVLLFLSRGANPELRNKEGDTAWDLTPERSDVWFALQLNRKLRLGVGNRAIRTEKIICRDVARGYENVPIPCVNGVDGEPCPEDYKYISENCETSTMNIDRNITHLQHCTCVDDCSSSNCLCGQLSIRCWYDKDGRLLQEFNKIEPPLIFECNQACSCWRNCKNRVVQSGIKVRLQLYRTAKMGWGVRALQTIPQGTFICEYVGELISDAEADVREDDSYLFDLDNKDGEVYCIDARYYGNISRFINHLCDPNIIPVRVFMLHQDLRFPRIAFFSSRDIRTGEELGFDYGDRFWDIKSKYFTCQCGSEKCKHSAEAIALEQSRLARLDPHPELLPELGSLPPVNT

[5] = molecular target: T2, Histone-lysine N-methyltransferase EHMT1 (Homo sapiens, UniProt Q9H9B1); assay: Inhibition of GLP (unknown origin)
T2 sequence (Q9H9B1 whole entry): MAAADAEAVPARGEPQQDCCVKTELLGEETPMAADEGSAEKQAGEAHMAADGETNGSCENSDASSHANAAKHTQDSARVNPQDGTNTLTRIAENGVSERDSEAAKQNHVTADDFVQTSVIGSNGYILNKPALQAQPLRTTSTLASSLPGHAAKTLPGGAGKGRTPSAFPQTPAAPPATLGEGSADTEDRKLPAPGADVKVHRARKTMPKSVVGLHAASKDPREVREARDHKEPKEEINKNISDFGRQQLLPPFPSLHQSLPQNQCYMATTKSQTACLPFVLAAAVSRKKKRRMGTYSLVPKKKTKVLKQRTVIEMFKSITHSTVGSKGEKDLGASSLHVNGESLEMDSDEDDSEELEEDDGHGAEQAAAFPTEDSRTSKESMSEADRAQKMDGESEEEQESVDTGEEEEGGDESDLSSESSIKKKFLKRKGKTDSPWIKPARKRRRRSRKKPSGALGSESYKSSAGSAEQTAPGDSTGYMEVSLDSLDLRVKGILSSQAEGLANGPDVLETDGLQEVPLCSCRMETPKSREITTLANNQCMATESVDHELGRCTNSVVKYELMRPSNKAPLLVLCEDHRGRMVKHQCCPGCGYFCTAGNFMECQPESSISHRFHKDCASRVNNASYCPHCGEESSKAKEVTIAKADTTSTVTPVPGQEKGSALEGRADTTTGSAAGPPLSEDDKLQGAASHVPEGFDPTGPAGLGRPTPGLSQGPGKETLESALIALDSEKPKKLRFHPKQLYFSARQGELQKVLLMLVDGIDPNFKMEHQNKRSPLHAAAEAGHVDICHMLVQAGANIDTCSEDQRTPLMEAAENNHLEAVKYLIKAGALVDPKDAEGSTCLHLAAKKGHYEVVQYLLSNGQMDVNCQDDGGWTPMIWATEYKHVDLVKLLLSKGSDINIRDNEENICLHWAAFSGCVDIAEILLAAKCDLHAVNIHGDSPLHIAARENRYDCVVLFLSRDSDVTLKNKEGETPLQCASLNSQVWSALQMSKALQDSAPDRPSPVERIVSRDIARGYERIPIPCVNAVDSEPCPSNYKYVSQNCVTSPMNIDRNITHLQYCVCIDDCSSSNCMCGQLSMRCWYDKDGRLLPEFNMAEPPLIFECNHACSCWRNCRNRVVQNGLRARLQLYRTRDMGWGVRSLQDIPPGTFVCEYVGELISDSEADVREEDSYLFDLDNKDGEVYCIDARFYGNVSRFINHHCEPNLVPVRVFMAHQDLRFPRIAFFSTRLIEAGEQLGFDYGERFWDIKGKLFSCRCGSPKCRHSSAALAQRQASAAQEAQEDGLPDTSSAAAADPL

[6] = molecular target: Protein arginine N-methyltransferase 1 (Homo sapiens, UniProt Q99873); assay: Inhibition of PRMT1 (unknown origin)
[7] = molecular target: T3, Histone-arginine methyltransferase CARM1 (Homo sapiens, UniProt Q86X55); assay: Inhibition of PRMT4 (unknown origin)
T3 sequence (Q86X55 whole entry): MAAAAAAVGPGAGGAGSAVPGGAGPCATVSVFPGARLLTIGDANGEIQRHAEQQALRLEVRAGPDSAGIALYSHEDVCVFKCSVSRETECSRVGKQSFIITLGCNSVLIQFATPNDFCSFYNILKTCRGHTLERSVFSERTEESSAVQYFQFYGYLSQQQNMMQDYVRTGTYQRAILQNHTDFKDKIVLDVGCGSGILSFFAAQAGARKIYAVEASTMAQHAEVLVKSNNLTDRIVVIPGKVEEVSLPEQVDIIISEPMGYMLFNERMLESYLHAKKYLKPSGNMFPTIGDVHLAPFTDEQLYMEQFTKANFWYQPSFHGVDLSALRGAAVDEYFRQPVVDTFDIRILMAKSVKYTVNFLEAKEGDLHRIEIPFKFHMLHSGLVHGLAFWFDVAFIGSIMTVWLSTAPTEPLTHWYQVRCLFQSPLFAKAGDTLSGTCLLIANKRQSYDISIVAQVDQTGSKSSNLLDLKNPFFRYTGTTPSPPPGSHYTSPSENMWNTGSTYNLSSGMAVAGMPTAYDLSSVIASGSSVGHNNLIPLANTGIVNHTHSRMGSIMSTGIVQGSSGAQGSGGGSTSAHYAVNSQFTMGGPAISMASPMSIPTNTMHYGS

[8] = molecular target: Protein arginine N-methyltransferase 5 (Homo sapiens, UniProt O14744); assay: Inhibition of PRMT5 (unknown origin)
[9] = molecular target: Histone-lysine N-methyltransferase EZH2 (Homo sapiens, UniProt Q15910); assay: Inhibition of EZH2 (unknown origin)
[10] = molecular target: Histone-lysine N-methyltransferase 2A (Homo sapiens, UniProt Q03164); assay: Inhibition of MLL1 (unknown origin)
[11] = molecular target: Histone-lysine N-methyltransferase 2B (Homo sapiens, UniProt Q9UMN6); assay: Inhibition of MLL4 (unknown origin)
[12] = molecular target: DNA (cytosine-5)-methyltransferase 1 (Homo sapiens, UniProt P26358); assay: Inhibition of DNMT1 (unknown origin)
[13] = Half life in mouse at 4 mg/kg, ip; assay type: ADME, organism-based; conditions: in vivo
[14] = Cmax in mouse at 4 mg/kg, ip; assay type: ADME, organism-based; conditions: in vivo
[15] = AUC (0 to last) in mouse at 4 mg/kg, ip; assay type: ADME, organism-based; conditions: in vivo
[16] = AUC (0 to infinity) in mouse at 4 mg/kg, ip; assay type: ADME, organism-based; conditions: in vivo
[17] = MRT (0 to t) in mouse at 4 mg/kg, ip; assay type: ADME, organism-based; conditions: in vivo
[18] = Toxicity in male BALB/c/Nu/Nu mouse xenografted with human PANC-1 cells assessed as change in body weight administered as ip dose and measured every 2 days for 21 days; assay type: organism-based; conditions: in vivo, 504 h, time 21 day
[19] = Toxicity in male BALB/c/Nu/Nu mouse xenografted with human PANC-1 cells assessed as drug tolerance administered as ip dose and measured every 2 days for 21 days; assay type: organism-based; conditions: in vivo, 504 h, time 21 day
[20] = molecular target: T4, Histone-lysine N-methyltransferase NSD2 (Homo sapiens, UniProt O96028); assay: Inhibition of NSD2 (unknown origin) by AlphaLISA assay
T4 sequence (O96028 whole entry): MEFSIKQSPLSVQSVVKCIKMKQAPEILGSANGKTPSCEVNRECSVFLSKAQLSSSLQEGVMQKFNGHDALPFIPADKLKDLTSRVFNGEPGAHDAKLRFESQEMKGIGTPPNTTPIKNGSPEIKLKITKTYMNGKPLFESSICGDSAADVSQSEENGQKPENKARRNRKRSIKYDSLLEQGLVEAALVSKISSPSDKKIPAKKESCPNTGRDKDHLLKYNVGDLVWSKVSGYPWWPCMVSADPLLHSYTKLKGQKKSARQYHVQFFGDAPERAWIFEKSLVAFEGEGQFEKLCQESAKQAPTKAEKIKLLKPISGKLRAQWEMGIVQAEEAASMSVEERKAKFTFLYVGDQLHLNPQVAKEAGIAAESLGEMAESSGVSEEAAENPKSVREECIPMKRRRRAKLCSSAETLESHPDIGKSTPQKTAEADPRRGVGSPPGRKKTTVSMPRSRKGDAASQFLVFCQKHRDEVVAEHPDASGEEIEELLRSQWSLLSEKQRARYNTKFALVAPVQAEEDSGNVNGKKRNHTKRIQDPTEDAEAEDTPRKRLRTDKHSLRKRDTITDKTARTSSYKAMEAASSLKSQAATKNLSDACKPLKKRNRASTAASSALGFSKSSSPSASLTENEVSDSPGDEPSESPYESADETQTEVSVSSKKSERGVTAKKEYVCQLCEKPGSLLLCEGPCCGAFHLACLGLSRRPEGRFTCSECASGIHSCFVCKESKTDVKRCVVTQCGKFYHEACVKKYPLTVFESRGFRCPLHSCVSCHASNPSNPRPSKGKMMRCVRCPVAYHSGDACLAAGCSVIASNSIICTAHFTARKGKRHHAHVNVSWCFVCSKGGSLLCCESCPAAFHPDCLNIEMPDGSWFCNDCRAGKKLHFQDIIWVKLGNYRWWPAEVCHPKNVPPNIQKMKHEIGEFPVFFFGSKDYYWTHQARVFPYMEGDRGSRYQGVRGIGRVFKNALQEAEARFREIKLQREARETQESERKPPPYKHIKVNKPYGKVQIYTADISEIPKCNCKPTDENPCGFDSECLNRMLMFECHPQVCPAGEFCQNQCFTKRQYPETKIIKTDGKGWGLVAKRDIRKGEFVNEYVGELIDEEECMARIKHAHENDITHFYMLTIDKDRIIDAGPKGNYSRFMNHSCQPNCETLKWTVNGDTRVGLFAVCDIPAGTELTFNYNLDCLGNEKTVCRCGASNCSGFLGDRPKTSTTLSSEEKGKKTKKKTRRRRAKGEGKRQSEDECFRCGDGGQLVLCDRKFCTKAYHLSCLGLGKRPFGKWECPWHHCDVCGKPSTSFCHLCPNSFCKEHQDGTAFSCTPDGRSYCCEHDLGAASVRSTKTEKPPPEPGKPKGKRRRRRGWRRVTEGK

Sequence of Histone-lysine N-methyltransferase 2B (Q9UMN6 whole entry): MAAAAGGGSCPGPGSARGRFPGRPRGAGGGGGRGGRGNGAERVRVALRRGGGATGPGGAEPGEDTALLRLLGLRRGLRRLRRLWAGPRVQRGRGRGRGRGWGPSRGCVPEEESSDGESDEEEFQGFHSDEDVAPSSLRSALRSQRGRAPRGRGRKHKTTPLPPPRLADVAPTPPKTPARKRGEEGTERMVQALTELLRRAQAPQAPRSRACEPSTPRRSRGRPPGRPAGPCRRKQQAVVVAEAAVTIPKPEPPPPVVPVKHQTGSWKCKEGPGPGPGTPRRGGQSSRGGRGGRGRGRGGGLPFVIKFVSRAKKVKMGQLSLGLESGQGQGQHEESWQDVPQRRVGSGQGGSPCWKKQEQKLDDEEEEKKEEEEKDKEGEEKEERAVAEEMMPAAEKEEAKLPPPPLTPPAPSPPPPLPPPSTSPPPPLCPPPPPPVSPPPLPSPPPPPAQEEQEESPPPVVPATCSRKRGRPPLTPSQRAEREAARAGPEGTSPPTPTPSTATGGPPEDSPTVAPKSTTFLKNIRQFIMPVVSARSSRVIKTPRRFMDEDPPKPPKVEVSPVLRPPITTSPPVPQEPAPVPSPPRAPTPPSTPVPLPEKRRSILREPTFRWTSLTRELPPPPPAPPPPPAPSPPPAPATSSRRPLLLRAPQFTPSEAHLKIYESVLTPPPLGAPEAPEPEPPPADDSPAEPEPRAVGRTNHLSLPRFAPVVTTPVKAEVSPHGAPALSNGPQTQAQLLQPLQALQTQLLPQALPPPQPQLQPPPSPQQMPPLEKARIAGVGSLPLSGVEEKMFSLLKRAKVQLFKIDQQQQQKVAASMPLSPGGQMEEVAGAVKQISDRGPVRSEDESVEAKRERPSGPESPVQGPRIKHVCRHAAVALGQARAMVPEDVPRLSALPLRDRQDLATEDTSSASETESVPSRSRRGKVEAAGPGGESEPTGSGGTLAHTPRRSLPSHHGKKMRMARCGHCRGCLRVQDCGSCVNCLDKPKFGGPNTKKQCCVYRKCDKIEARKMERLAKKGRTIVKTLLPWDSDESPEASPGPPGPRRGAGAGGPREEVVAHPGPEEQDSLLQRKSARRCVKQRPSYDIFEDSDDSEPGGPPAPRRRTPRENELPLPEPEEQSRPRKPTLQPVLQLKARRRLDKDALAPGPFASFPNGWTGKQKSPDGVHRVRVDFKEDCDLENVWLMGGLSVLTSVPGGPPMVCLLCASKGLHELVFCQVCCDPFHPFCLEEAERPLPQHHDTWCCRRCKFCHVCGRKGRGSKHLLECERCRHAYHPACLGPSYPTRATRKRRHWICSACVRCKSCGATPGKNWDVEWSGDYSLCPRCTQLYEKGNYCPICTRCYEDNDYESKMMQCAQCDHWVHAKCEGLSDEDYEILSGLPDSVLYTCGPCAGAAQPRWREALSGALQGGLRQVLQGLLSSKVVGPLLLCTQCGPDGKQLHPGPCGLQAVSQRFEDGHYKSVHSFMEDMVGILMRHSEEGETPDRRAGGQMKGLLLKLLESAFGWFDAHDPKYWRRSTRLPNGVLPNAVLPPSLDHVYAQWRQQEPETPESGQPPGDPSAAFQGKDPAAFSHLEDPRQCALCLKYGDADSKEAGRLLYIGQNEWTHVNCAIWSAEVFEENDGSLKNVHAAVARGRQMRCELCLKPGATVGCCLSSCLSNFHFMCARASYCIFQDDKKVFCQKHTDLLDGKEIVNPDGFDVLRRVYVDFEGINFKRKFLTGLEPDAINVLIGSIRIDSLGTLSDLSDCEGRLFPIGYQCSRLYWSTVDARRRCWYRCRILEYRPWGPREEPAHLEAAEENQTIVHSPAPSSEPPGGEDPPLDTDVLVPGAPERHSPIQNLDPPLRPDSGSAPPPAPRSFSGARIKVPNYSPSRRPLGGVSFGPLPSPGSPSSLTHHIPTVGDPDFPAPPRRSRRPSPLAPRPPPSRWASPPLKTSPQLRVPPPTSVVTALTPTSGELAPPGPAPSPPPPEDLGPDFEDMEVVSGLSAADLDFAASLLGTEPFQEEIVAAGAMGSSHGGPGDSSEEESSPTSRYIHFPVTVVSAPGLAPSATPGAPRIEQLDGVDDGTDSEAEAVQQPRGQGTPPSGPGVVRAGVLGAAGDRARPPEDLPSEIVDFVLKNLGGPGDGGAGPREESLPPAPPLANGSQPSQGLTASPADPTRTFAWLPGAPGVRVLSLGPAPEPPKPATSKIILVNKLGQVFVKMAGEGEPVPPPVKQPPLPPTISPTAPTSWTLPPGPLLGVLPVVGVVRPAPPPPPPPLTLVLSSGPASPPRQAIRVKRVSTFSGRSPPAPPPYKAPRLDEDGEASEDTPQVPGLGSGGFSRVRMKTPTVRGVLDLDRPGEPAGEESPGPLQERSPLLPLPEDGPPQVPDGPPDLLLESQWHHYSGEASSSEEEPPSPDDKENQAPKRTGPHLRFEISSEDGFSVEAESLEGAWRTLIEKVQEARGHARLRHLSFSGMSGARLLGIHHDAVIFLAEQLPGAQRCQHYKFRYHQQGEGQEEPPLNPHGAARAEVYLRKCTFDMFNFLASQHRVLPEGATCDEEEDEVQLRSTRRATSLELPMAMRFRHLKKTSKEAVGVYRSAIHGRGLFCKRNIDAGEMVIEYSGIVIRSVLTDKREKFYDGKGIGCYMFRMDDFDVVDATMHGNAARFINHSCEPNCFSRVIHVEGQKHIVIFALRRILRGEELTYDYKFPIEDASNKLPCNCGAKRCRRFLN
Sequence of Protein arginine N-methyltransferase 5 (O14744 whole entry): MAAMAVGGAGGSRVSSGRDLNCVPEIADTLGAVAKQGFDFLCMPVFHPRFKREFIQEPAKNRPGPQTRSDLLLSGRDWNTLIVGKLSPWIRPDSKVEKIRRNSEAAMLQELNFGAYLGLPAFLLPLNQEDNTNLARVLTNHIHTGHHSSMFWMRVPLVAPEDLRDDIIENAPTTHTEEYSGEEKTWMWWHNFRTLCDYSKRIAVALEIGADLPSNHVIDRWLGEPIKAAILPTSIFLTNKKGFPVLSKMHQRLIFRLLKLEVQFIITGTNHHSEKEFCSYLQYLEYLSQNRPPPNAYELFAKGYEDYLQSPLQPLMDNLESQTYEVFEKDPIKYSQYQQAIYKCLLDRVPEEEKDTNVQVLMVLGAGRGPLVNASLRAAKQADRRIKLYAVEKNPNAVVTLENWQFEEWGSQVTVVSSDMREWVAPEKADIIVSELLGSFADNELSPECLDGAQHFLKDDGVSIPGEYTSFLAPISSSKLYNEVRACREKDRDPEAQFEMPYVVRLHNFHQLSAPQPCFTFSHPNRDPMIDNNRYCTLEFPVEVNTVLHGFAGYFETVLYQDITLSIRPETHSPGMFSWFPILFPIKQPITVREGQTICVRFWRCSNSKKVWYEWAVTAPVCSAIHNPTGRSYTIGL
Sequence of Protein arginine N-methyltransferase 1 (Q99873 whole entry): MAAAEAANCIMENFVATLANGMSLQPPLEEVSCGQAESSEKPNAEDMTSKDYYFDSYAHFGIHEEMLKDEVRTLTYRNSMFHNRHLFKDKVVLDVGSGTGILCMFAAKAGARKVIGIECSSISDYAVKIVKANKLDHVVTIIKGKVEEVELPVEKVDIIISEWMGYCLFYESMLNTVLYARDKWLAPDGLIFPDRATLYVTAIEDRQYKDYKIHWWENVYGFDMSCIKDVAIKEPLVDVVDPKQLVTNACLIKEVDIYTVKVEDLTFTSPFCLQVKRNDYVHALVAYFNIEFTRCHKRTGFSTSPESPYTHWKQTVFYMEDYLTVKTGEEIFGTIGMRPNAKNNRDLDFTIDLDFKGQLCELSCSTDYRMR
Sequence of Histone-lysine N-methyltransferase EZH2 (Q15910 whole entry): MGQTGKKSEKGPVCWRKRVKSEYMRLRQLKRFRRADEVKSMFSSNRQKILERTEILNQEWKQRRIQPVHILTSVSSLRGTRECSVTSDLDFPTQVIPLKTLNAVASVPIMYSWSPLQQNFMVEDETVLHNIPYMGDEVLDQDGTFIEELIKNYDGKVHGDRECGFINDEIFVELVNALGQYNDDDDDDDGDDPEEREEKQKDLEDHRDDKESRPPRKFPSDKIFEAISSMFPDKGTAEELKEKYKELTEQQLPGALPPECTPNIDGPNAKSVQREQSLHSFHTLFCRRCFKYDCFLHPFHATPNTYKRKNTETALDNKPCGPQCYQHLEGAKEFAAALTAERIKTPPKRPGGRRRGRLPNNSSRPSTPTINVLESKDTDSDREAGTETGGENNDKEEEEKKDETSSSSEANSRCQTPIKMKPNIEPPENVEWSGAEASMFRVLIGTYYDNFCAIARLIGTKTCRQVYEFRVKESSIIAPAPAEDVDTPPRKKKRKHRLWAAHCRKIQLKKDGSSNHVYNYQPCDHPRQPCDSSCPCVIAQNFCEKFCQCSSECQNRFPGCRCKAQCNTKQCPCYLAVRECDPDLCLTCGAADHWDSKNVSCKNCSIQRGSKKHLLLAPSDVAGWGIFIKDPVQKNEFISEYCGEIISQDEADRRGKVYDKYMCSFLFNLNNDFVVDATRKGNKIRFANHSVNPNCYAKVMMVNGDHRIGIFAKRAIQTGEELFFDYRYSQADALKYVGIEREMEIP

Compound: COc1cc2c(NC3CCN(C(C)C)CC3)nc(N3CCC(F)(F)CC3)nc2cc1OCCCN1CCCC1
- inhibition in vivo at 4 mg/kg [1]: 7.34%
- IC50 [2]: 5.74 µM
- IC50 [3]: 3.31 µM

Compound: COc1cc2c(NC3CCN(C(C)C)CC3)nc(C#N)nc2cc1OCCCN1CCCC1
- IC50 [5]: 0.41 µM
- IC50 [6]: 6.44 µM
- IC50 [7]: > 10 µM
- IC50 [8]: > 10 µM
- IC50 [9]: > 10 µM
- IC50 [10]: > 10 µM
- IC50 [11]: > 10 µM
- IC50 [12]: > 10 µM
- half-life [13]: 16 h
- Cmax [14]: 732 ng/mL
- AUClast [15]: 1987 ng·h/mL
- AUC [16]: 2960 ng·h/mL
- MRT last [17]: 20.3 h
- Activity [18]: Non-Toxic
- Activity [19]: Non-Toxic

Compound: COc1cc(F)c(-c2cc(Cn3cnc4c(N)ncnc43)c(N3CCC[C@](N)([C@H](O)CF)C3)cn2)cc1F
- IC50 [20]: < 0.1 µM

Continued, values first:

- IC50 [4]: 0.0085 µM
Compound: C=CC(=O)N(C)c1nc(NC2CCN(C(C)C)CC2)c2cc(OC)c(OCCCN3CCCC3)cc2n1

- IC50 [4]: > 10 µM
- IC50 [20]: 2.65 µM
Compound: COc1cc2nc(C#N)nc(NC3CCN(Cc4ccccc4)CC3)c2cc1OC

- IC50 [4]: < 0.1 µM
Compound: CNc1nc2cc(OCCCN3CCCC3)c(OC)cc2n1C(C)C

From ChEMBL document CHEMBL5579855 (J Med Chem, 2024)
